Test results published in patent publication US20210122730A1, “GLUCOCORTICOID RECEPTOR MODULATORS” (ORIC Pharmaceuticals, Inc., priority 2017, published 2021).

Columns and labels:
GR = molecular target: T1, GR (Homo sapiens, UniProt P04150); assay: In Vitro GR Luciferase Reporter Assay (antagonist mode, CHO-K1-GR-MMTV-Luc reporter cells); format: cell-based; details: antagonist mode, 10 nM Dexamethasone
T1 construct: expressed in transfected cells; host or cells: CHO-K1
T1 sequence (P04150 1-777): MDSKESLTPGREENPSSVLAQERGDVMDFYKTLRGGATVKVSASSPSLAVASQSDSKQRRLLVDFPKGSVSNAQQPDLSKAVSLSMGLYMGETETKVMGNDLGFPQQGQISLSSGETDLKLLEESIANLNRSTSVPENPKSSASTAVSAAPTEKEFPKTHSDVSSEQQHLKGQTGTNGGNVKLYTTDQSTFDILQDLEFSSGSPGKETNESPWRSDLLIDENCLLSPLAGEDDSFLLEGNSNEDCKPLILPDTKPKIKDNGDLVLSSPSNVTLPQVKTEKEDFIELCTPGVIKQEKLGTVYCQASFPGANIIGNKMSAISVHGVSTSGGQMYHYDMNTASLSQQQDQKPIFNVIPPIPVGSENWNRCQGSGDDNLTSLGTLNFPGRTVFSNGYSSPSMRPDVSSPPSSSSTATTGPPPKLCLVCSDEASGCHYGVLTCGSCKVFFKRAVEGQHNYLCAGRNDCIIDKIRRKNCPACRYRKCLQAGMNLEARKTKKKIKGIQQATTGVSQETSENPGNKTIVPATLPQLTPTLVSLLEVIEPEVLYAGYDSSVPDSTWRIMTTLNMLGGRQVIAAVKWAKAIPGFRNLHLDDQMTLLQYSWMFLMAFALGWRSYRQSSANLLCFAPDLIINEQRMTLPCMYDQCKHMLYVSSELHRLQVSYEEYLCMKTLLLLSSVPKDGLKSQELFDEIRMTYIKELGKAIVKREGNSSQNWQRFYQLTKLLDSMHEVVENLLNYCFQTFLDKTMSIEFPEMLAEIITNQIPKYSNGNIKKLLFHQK
Summary of the method: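 CHO-K1-GR-MMTV-Luc cells in phenol red-free DMEM with 10% CSS, stimulated with 10 nM dexamethasone (final) and treated with 8-point 1:5 compound dilutions for about 18-24 h at 37° C. Luciferase measured by OneGlo luminescence; IC50 derived for inhibition of GR activity.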

CYP2C8 = molecular target: T2, CYP2C8 (Homo sapiens, UniProt P10632); assay: CYP Inhibition Assay (CYP2C8, human liver microsomes, paclitaxel substrate); format: in vitro ADME; details: pH 7.4; pooled human liver microsomes 0.1 mg/mL, probe substrate paclitaxel
T2 construct: Pooled human microsomes were obtained from Sekisui XenoTech, KS; tissue Sekisui XenoTech, KS; host or cells: pooled human liver microsomes
T2 sequence (P10632 1-490): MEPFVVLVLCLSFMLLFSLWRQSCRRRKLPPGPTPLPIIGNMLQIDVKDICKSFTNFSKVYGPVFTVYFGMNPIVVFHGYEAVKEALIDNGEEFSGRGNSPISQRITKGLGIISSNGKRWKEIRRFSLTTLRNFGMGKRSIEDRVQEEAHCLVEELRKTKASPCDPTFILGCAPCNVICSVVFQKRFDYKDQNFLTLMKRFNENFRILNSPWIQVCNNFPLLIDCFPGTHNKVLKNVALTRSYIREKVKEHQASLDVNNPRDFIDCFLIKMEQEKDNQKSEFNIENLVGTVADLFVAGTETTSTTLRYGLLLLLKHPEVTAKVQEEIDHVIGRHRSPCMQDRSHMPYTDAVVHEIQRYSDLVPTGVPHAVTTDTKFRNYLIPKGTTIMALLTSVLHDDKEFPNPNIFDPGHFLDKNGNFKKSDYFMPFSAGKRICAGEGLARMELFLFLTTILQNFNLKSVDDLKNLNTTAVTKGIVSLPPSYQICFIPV
Method: Example B: CYP Inhibition Assay
Objective: To assess the % inhibition of test compounds against CYP2C8 enzyme in human liver microsomes.
Pooled human microsomes were obtained from Sekisui XenoTech, KS, and were used for in vitro assessment of compound inhibitory potential of the major drug metabolizing human CYP enzymes.
Test compounds were dissolved in DMSO as 10 mM stock solutions and diluted to 200 µM in acetonitrile as working solutions. The total concentrations of DMSO and acetonitrile were 0.02% and 0.5%, respectively, in the assay.
The assay was performed in duplicate in a 96-well plate. The reaction mixture ([…]) containing a final concentration of 0.1 mg/mL pooled human liver microsomes, 50 mM potassium phosphate, pH 7.4 buffer, was re-warmed at 37° C. for 5 minutes. The reaction was initiated with NADPH solution which was at 1 mM final concentration, and carried out for 5 minutes at 37° C. It was terminated by the addition of 3-fold volume of quench solution (1:1 acetonitrile:methanol with 0.1% formic acid and the internal standard of tolbutamide). The sample was vortexed, centrifuged at 4,000 rpm for 15 min at 4° C. The incubation in the presence of vehicle (0.02% DMSO and 0.5% acetonitrile) was used as the enzyme activity control. The analyses of metabolite 6α-hydroxypaclitaxel in supernatant was performed with LC-MS/MS method (Sciex API 4500 Qtrap coupled to a Shimadzu LC-20AD HPLC).
The CYP enzyme activity was determined based on the formation of 6a-hydroxypaclitaxel metabolite. The % inhibition was calculated using this equation: % Inhibition=100×(1−Ainactivator/Avehicle), where Ainactivator is the CYP enzyme activity in the presence of test compound, and Avehicle is the CYP activity in the presence of vehicle.

Compound	IC50 (GR) [nM]	inhibition at 5 min (CYP2C8) [%]
CN([C@H]1CCC2=Cc3c(cnn3-c3ccc(F)cc3)C[C@]2(C(=O)c2cc(C(F)(F)F)ccn2)C1)S(=O)(=O)c1cn(C)nn1 [Example 170, N-((4aS,6S)-1-(4-fluorophenyl)-4a-(4-(trifluoromethyl)picolinoyl)-4,4a,5,6,7,8-hexahydro-1H-benzo[f]indazol-6-yl)-N,1-dimethyl-1H-1,2,3-triazole-4-sulfonamide]	≤ 100	≤ 25
Cn1cc(S(=O)(=O)N(C2CC2)[C@H]2CCC3=Cc4c(cnn4-c4ccc(F)cc4)C[C@]3(C(=O)c3ncc(C(F)(F)F)s3)C2)cn1 [Example 176, N-cyclopropyl-N-((4aS,6S)-1-(4-fluorophenyl)-4a-(5 (trifluoromethyl)thiazole-2-carbonyl)-4,4a,5,6,7,8-hexahydro-1H-benzo[f]indazol-6-yl)-1-methyl-1H-pyrazole-4-sulfonamide]	≤ 100	25 to 50
Cn1ccc(S(=O)(=O)N(CC2CC2)[C@H]2CCC3=Cc4c(cnn4-c4ccc(F)cc4)C[C@]3(C(=O)c3cc(C(F)(F)F)ccn3)C2)n1 [Example 178, N-(cyclopropylmethyl)-N-((4aS,6S)-1-(4-fluorophenyl)-4a-(4-(trifluoromethyl)picolinoyl)-4,4a,5,6,7,8-hexahydro-1H-benzo[f]indazol-6-yl)-1-methyl-1H-pyrazole-3-sulfonamide]	≤ 100	25 to 50
CC(C)N([C@H]1CCC2=Cc3c(cnn3-c3ccc(F)cc3)C[C@]2(C(=O)c2ncc(C(F)(F)F)s2)C1)S(=O)(=O)c1ccn(C)n1 [Example 182, N-((4aS,6S)-1-(4-fluorophenyl)-4a-(5-(trifluoromethyl)thiazole-2-carbonyl)-4,4a,5,6,7,8-hexahydro-1H-benzo[f]indazol-6-yl)-N-isopropyl-1-methyl-1H-pyrazole-3-sulfonamide]	≤ 100	50 to 75
Cn1ncc(S(=O)(=O)N(C2CC2)[C@H]2CCC3=Cc4c(cnn4-c4ccc(F)cc4)C[C@]3(C(=O)c3ncc(C(F)(F)F)s3)C2)n1 [Example 183, N-cyclopropyl-N-((4aS,6S)-1-(4-fluorophenyl)-4a-(5 (trifluoromethyl)thiazole-2-carbonyl)-4,4a,5,6,7,8-hexahydro-1H-benzo[f]indazol-6-yl)-2-methyl-2H-1,2,3-triazole-4-sulfonamide]	≤ 100	25 to 50
Cn1ccc(S(=O)(=O)N(CC(F)(F)F)[C@H]2CCC3=Cc4c(cnn4-c4ccc(F)cc4)C[C@]3(C(=O)c3ncc(C(F)(F)F)s3)C2)n1 [Example 184, N-((4aS,6S)-1-(4-fluorophenyl)-4a-(5-(trifluoromethyl)thiazole-2-carbonyl)-4,4a,5,6,7,8-hexahydro-1H-benzo[f]indazol-6-yl)-1-methyl-N-(2,2,2-trifluoroethyl)-1H-pyrazole-3-sulfonamide]	≤ 100	25 to 50
Cn1ccc(S(=O)(=O)N(CC(C)(C)O)[C@H]2CCC3=Cc4c(cnn4-c4ccc(F)cc4)C[C@]3(C(=O)c3ncc(C(F)(F)F)s3)C2)n1 [Example 189, N-((4aS,6S)-1-(4-fluorophenyl)-4a-(5-(trifluoromethyl)thiazole-2-carbonyl)-4,4a,5,6,7,8-hexahydro-1H-benzo[f]indazol-6-yl)-N-(2-hydroxy-2-methylpropyl)-1-methyl-1H-pyrazole-3-sulfonamide]	≤ 100	50 to 75
CC(C)N([C@H]1CCC2=Cc3c(cnn3-c3ccc(F)cc3)C[C@]2(C(=O)c2ncc(C(F)(F)F)s2)C1)S(=O)(=O)c1cnn(C)c1 [Example 191, N-((4aS,6S)-1-(4-fluorophenyl)-4a-(5-(trifluoromethyl)thiazole-2-carbonyl)-4,4a,5,6,7,8-hexahydro-1H-benzo[f]indazol-6-yl)-N-isopropyl-1-methyl-1H-pyrazole-4-sulfonamide]	≤ 100	25 to 50
CC(C)N([C@H]1CCC2=Cc3c(cnn3-c3ccc(F)cc3)C[C@]2(C(=O)c2cc(C(F)(F)F)ccn2)C1)S(=O)(=O)c1cnn(C)c1 [Example 193, N-((4aS,6S)-1-(4-fluorophenyl)-4a-(4-(trifluoromethyl)picolinoyl)-4,4a,5,6,7,8-hexahydro-1H-benzo[f]indazol-6-yl)-N-isopropyl-1-methyl-1H-pyrazole-4-sulfonamide]	≤ 100	50 to 75
Cn1ncc(S(=O)(=O)N(CC2CC2)[C@H]2CCC3=Cc4c(cnn4-c4ccc(F)cc4)C[C@]3(C(=O)c3ncc(C(F)(F)F)s3)C2)n1 [Example 194, N-(cyclopropylmethyl)-N-((4aS,6S)-1-(4-fluorophenyl)-4a-(5-(trifluoromethyl)thiazole-2-carbonyl)-4,4a,5,6,7,8-hexahydro-1H-benzo[f]indazol-6-yl)-2-methyl-2H-1,2,3-triazole-4-sulfonamide]	≤ 100	50 to 75
Cn1ccc(S(=O)(=O)N(CC(C)(C)O)[C@H]2CCC3=Cc4c(cnn4-c4ccc(F)cc4)C[C@]3(C(=O)c3cc(C(F)(F)F)ccn3)C2)n1 [Example 195, N-((4aS,6S)-1-(4-fluorophenyl)-4a-(4-(trifluoromethyl)picolinoyl)-4,4a,5,6,7,8-hexahydro-1H-benzo[f]indazol-6-yl)-N-(2-hydroxy-2-methylpropyl)-1-methyl-1H-pyrazole-3-sulfonamide]	≤ 100	25 to 50
Cn1ccc(S(=O)(=O)N(C2COC2)[C@H]2CCC3=Cc4c(cnn4-c4ccc(F)cc4)C[C@]3(C(=O)c3ncc(C(F)(F)F)s3)C2)n1 [Example 196, N-((4aS,6S)-1-(4-fluorophenyl)-4a-(5-(trifluoromethyl)thiazole-2-carbonyl)-4,4a,5,6,7,8-hexahydro-1H-benzo[f]indazol-6-yl)-1-methyl-N-(oxetan-3-yl)-1H-pyrazole-3-sulfonamide]	≤ 100	50 to 75
Cn1ccc(S(=O)(=O)N(C2COC2)[C@H]2CCC3=Cc4c(cnn4-c4ccc(F)cc4)C[C@]3(C(=O)c3cc(C(F)(F)F)ccn3)C2)n1 [Example 198, N-((4aS,6S)-1-(4-fluorophenyl)-4a-(4-(trifluoromethyl)picolinoyl)-4,4a,5,6,7,8-hexahydro-1H-benzo[f]indazol-6-yl)-1-methyl-N-(oxetan-3-yl)-1H-pyrazole-3-sulfonamide]	≤ 100	25 to 50
CCN([C@H]1CCC2=Cc3c(cnn3-c3ccc(F)cc3)C[C@]2(C(=O)c2ncc(C(F)(F)F)s2)C1)S(=O)(=O)c1ccn(C)n1 [Example 199, N-ethyl-N-((4aS,6S)-1-(4-fluorophenyl)-4a-(5-(trifluoromethyl)thiazole-2-carbonyl)-4,4a,5,6,7,8-hexahydro-1H-benzo[f]indazol-6-yl)-1-methyl-1H-pyrazole-3-sulfonamide]	≤ 100	75 to 90
